Data from the supplement of paper PMC10307832.

Experiments:
Test in all cases: relative viability (nuclei count vs DMSO), 5 days (fraction); higher = more cells survive
AZD1208 + Olaparib = compound: N[C@@H]1CCCN(c2c(/C=C3\SC(=O)NC3=O)cccc2-c2ccccc2)C1 [AZD1208] + O=C(c1cc(Cc2n[nH]c(=O)c3ccccc23)ccc1F)N1CCN(C(=O)C2CC2)CC1 [Olaparib] (partner 8 µM)
Summary of the method: (§1)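 After 5 days of treatment, lung cancer cells in 1536-well plates were fixed and stained in a single step (final 0.05% Triton X-100, 1% formaldehyde, 1 ug/ml Hoechst) and their nuclei counted on 4× images. Treatment had been applied by pin tool the day after seeding as one drug alone or as a fixed anchor-drug dose with five library-drug doses (not always all listed) in √10 steps. Relative viability is the nuclei count of treated wells divided by that of vehicle wells, and values are medians of duplicate plates.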

AZD1208 + Lapatinib = compound: N[C@@H]1CCCN(c2c(/C=C3\SC(=O)NC3=O)cccc2-c2ccccc2)C1 [AZD1208] + CS(=O)(=O)CCNCc1ccc(-c2ccc3ncnc(Nc4ccc(OCc5cccc(F)c5)c(Cl)c4)c3c2)o1 [Lapatinib] (partner 2 µM)
Summary of the method: as §1

XMD14-99 + Trametinib = compound: CN1CCN(CC1)C2=CC(=C(C=C2)NC3=NC(=C(S3)C(=O)C4=C(C=CC=C4Cl)Cl)N)OC [XMD14-99] + CC(=O)Nc1cccc(-n2c(=O)n(C3CC3)c(=O)c3c(Nc4ccc(I)cc4F)n(C)c(=O)c(C)c32)c1 [Trametinib] (partner 0.02 µM)
Summary of the method: as §1

XMD14-99 + Pictilisib = compound: CN1CCN(CC1)C2=CC(=C(C=C2)NC3=NC(=C(S3)C(=O)C4=C(C=CC=C4Cl)Cl)N)OC [XMD14-99] + CS(=O)(=O)N1CCN(Cc2cc3nc(-c4cccc5[nH]ncc45)nc(N4CCOCC4)c3s2)CC1 [Pictilisib] (partner 1 µM)
Summary of the method: as §1

## UMC-11
AZD1208 + Olaparib; first compound 0.08 µM
  relative viability: 0.27
AZD1208 + Olaparib; first compound 0.253 µM
  relative viability: 0.374
AZD1208 + Olaparib; first compound 0.8 µM
  relative viability: 0.333
AZD1208 + Olaparib; first compound 2.53 µM
  relative viability: 0.309
AZD1208 + Olaparib; first compound 8 µM
  relative viability: 0.264
AZD1208 + Lapatinib; first compound 0.08 µM
  relative viability: 0.819
AZD1208 + Lapatinib; first compound 0.253 µM
  relative viability: 0.739
AZD1208 + Lapatinib; first compound 0.8 µM
  relative viability: 0.679
AZD1208 + Lapatinib; first compound 2.53 µM
  relative viability: 0.487
AZD1208 + Lapatinib; first compound 8 µM
  relative viability: 0.466
XMD14-99 + Trametinib; first compound 0.08 µM
  relative viability: 0.744
XMD14-99 + Trametinib; first compound 0.8 µM
  relative viability: 0.637
XMD14-99 + Trametinib; first compound 2.53 µM
  relative viability: 0.747
XMD14-99 + Trametinib; first compound 8 µM
  relative viability: 0.645
XMD14-99 + Pictilisib; first compound 0.08 µM
  relative viability: 0.802
XMD14-99 + Pictilisib; first compound 0.8 µM
  relative viability: 0.856
XMD14-99 + Pictilisib; first compound 2.53 µM
  relative viability: 0.795
XMD14-99 + Pictilisib; first compound 8 µM
  relative viability: 0.663
